Laboratory results: patent publication US20160297761A1, “NOVEL INHIBITORS OF GLUTAMINASE” (RHIZEN PHARMACEUTICALS SA, priority 2014, published 2016)
Counter-ions that a name gives are not always drawn. Like-named read-outs stand apart in the source and are kept apart here.

Target: T1, L-glutaminase present in mice brain homogenate (Glutaminase(Brain)) (Mus musculus, UniProt D3Z7P3)
T1 sequence (D3Z7P3 55-674): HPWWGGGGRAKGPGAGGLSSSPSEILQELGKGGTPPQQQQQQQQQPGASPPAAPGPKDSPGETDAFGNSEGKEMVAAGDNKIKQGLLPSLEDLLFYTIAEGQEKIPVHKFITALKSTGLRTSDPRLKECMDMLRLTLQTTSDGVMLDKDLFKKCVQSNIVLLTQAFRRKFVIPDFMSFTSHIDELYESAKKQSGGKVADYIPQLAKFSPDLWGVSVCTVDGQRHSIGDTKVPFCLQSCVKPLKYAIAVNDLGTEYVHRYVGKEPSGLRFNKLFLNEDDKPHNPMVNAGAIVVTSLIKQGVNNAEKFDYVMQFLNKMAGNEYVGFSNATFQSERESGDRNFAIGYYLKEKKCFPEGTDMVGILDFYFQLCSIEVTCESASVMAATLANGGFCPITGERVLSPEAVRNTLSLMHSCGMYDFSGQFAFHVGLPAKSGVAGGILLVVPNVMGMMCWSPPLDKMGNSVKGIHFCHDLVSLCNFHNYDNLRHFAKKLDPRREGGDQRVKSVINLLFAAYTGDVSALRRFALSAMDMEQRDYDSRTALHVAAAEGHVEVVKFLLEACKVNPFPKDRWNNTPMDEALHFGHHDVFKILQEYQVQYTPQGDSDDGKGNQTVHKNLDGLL
Test: Glutaminase enzyme activity using glutaminase enzyme from mice brain/kidney homogenate (Nessler's reagent, ammonia)
Assay type: biochemical
Conditions: for inhibition at 0.1 µM: read-out: Glutaminase(Brain) activity % inhibition 0.1 μM; for inhibition at 1 µM: read-out: Glutaminase(Brain) activity % inhibition @1 μM
Experimental: Assay 3: Determination of Glutaminase Enzyme Activity Using Glutaminase
Enzyme from Mice Brain/Kidney
Step 1: Preparation of Tissue Homogenates: Male Balb/c mice were administered 0.28 M ammonium chloride in drinking water for 7 days. The animals were sacrificed and brain/kidney organs collected on dry ice. […] The tissue was homogenized and supernatants were stored at −80° C. until the enzyme assay was performed.
Aim: Compounds were assessed for their ability to inhibit the enzymatic activity of L-glutaminase present in mice brain/kidney homogenate.
Protocol: The assay was performed using a colorimetric method using Nessler's Reagent by quantifying the amount of ammonia formed as a by product during the enzymatic conversion of L-glutamine to glutamate. In the routine assay, 16 μl of tissue homogenate is added to 33 μl of Tris-Hcl phosphate buffer (pH 8) along with 1 μl of DMSO/test compound containing the desired final concentration and vortexed briefly. 50 μl of 20 mM L-glutamine Tris buffer is added to start the reaction and incubated for 15 minutes at 37° C. The ammonia formed is detected by adding 20 μl of reaction mixture to cold water in a 96 well plate followed by 20 μl of Nessler's reagent. The colour developed is measured at 450 nm. Data Analysis: Activity of the test compound is reported as % inhibition and the data is analyzed using Graphpad Prism (Graphpad software; San Diego Calif.) for IC50 determination.

Row | SMILES | inhibition at 0.1 µM (0.1 μM, mice brain homogenate) | inhibition at 1 µM (1 μM, mice brain homogenate) | inhibition at 0.1 µM | inhibition at 1 µM
1 | O=C(Cc1cccc(OC(F)(F)F)c1)Nc1ccc(CCCCc2nnc(NC(=O)Cc3ccc(C4CCNCC4)cc3)s2)cn1 [Example-34, 2-(4-(Piperidin-4-yl)phenyl)-N-(5-(4-(6-(2-(3-(trifluoromethoxy)phenyl)acetamido)pyridin-3-yl)butyl)-1,3,4-thiadiazol-2-yl)acetamide hydrochloride] |  |  | < 25% | 25 to 50%
2 | CS(=O)(=O)c1ccc(CC(=O)Nc2nnc(CCCCc3ccc(NC(=O)Cc4cccnc4)nc3)s2)cc1 [Example-14, 2-(4-(Methylsulfonyl)phenyl)-N-(5-(4-(6-(2-(pyridin-3-yl)acetamido)pyridin-3-yl)butyl)-1,3,4-thiadiazol-2-yl)acetamide] | 75 to 100% | 75 to 100% |  | 
3 | O=C(Cc1cccc(OC(F)(F)F)c1)Nc1ccc(CCCCc2nnc(NC(=O)Cc3cccc(C4CCNCC4)c3)s2)cn1 [Example-36, 2-(3-(Piperidin-4-yl)phenyl)-N-(5-(4-(6-(2-(3-(trifluoromethoxy)phenyl)acetamido)pyridin-3-yl)butyl)-1,3,4-thiadiazol-2-yl)acetamide hydrochloride] |  |  | 25 to 50% | 25 to 50%
4 | O=C(Cc1ccccn1)Nc1nnc(CC2CCC(Cc3nnc(NC(=O)Cc4ccccn4)s3)CC2)s1 (stereo not drawn) [Example-106, N,N′-(5, 5′-(Cyclohexane-1,4-diylbis(methylene))bis(1,3,4-thiadiazole-5,2-diyl))bis(2-(pyridin-2-yl)acetamide)] | < 25% | 25 to 50% |  | 
5 | O=C(Cc1cccc(OC(F)(F)F)c1)Nc1cnc(CCCCc2nnc(NC(=O)Cc3ccccn3)s2)cn1 [Example-6, 2-(Pyridin-2-yl)-N-(5-(4-(5-(2-(3-(trifluoromethoxy)phenyl)acetamido)pyrazin-2-yl)butyl)-1,3,4-thiadiazol-2-yl)acetamide] |  |  | < 25% | 25 to 50%
6 | O=C(Cc1cccc(OC(F)(F)F)c1)Nc1ccc(CC2CC(c3nnc(NC(=O)Cc4ccccn4)s3)C2)nn1 (stereo not drawn) [Example-110, 2-(Pyridin-2-yl)-N-(5-(3-((6-(2-(3-(trifluoromethoxy)phenyl)acetamido)pyridazin-3-yl)methyl)cyclobutyl)-1,3,4-thiadiazol-2-yl)acetamide] |  |  | 75 to 100% | 75 to 100%
7 | O=C(Cc1ccccc1Cl)Nc1ccc(CCCCc2nnc(NC(=O)Cc3ccccn3)s2)cn1 [Example-25, 2-(2-Chlorophenyl)-N-(5-(4-(5-(2-(pyridin-2-yl)acetamido)-1,3,4-thiadiazol-2-yl)butyl)pyridin-2-yl)acetamide] | < 25% | 50 to 75% |  | 
8 | O=C(Cc1cccnc1)Nc1ccc(CCCCc2nnc(NC(=O)Cc3cccnc3)s2)cn1 [Example-15, 2-(Pyridin-3-yl)-N-(5-(4-(5-(2-(pyridin-3-yl)acetamido)-1,3,4-thiadiazol-2-yl)butyl)pyridin-2-yl)acetamide] | 50 to 75% | 75 to 100% |  | 
9 | COc1ccccc1CC(=O)Nc1nnc(CCC#Cc2ccc(NC(=O)Cc3ccccc3Cl)nc2)s1 [Example 1, 2-(2-Chlorophenyl)-N-{5-[4-(5-(2-(2-methoxyphenyl)acetamido)-1,3,4-thiadiazol-2-yl)but-1-ynyl]pyridin-2-yl}acetamide] | 25 to 50% | 75 to 100% |  | 
10 | COc1ccccc1CC(=O)Nc1nnc(CCCCc2ccc(NC(=O)Cc3ccccc3Cl)nc2)s1 [Example 2, 2-(2-Chlorophenyl)-N-{5-[4-(5-(2-(2-methoxyphenyl)acetamido)-1,3,4-thiadiazol-2-yl)butyl]pyridin-2-yl}acetamide] | 50 to 75% | 75 to 100% |  | 

Now from value to compound, other results behind:

Row | inhibition at 0.1 µM (0.1 μM, mice brain homogenate) | inhibition at 1 µM (1 μM, mice brain homogenate) | SMILES | inhibition at 0.1 µM | inhibition at 1 µM
11 | < 25% | < 25% | O=C(Cc1cccc(OC(F)(F)F)c1)Nc1ccc(CCCCc2nnc(NC(=O)Cn3nc(C(F)(F)F)cc3C(F)(F)F)s2)cn1 [Example-35, 2-(3,5-Bis(trifluoromethyl)-1H-pyrazol-1-yl)-N-(5-(4-(6-(2-(3-(trifluoromethoxy)phenyl)acetamido)pyridin-3-yl)butyl)-1,3,4-thiadiazol-2-yl)acetamide] |  | 
12 | 75 to 100% | 75 to 100% | CS(=O)(=O)c1cccc(CC(=O)Nc2nnc(CCCCc3ccc(NC(=O)Cc4cccnc4)nc3)s2)c1 [Example-13, 2-(3-(Methylsulfonyl)phenyl)-N-(5-(4-(6-(2-(pyridin-3-yl)acetamido)pyridin-3-yl)butyl)-1,3,4-thiadiazol-2-yl)acetamide] |  | 
13 | 75 to 100% | 75 to 100% | O=C(Cc1cccnc1)Nc1ccc(CCCCc2nnc(NC(=O)Cc3ccccc3Cl)s2)cn1 [Example-12, 2-(2-Chlorophenyl)-N-(5-(4-(6-(2-(pyridin-3-yl)acetamido)pyridin-3-yl)butyl)-1,3,4-thiadiazol-2-yl) acetamide] |  | 
14 | < 25% | 25 to 50% | O=C(Cc1cccc(OC(F)(F)F)c1)Nc1ncc(CCCCc2nnc(NC(=O)Cc3ccccn3)s2)cn1 [Example-7, 2-(Pyridin-2-yl)-N-(5-(4-(2-(2-(3-(trifluoromethoxy)phenyl)acetamido)pyrimidin-5-yl)butyl)-1,3,4-thiadiazol-2-yl)acetamide] |  | 
15 | 50 to 75% | 75 to 100% | O=C(Cc1cccnc1)Nc1ccc(CCCCc2nnc(NC(=O)Cc3ccccc3F)s2)cn1 [Example-19, 2-(2-Fluorophenyl)-N-(5-(4-(6-(2-(pyridin-3-yl)acetamido)pyridin-3-yl)butyl)-1,3,4-thiadiazol-2-yl)acetamide] |  | 
16 | < 25% | < 25% | O=C(Cc1cccc(OC(F)(F)F)c1)Nc1ccc(CCCCc2nnc(NC(=O)Cc3cccnc3)s2)nc1 [Example-5, 2-(Pyridin-3-yl)-N-(5-(4-(5-(2-(3-(trifluoromethoxy)phenyl)acetamido)pyridin-2-yl)butyl)-1,3,4-thiadiazol-2-yl)acetamide] |  | 
17 | < 25% |  | O=C(Cc1cccc(OC(F)(F)F)c1)Nc1ccc(CCCCc2nnc(NC(=O)Cc3ccccn3)s2)nc1 [Example-4, 2-(Pyridin-2-yl)-N-(5-(4-(5-(2-(3-(trifluoromethoxy)phenyl)acetamido)pyridin-2-yl)butyl)-1,3,4-thiadiazol-2-yl)acetamide] |  | 
18 | 25 to 50% | 75 to 100% | CS(=O)(=O)Nc1cccc(CC(=O)Nc2nnc(CCCCc3ccc(NC(=O)Cc4cccc(OC(F)(F)F)c4)nc3F)s2)c1 [Example-39, N-(6-Fluoro-5-(4-(5-(2-(3-(methylsulfonamido)phenyl)acetamido)-1,3,4-thiadiazol-2-yl)butyl)pyridin-2-yl)-2-(3-(trifluoromethoxy)phenyl)acetamide] |  | 
19 | 50 to 75% | 75 to 100% | O=C(Cc1ccccc1Cl)Nc1ccc(CCCCc2nnc(NC(=O)Cc3cccnc3)s2)cn1 [Example-26, 2-(2-Chlorophenyl)-N-(5-(4-(5-(2-(pyridin-3-yl)acetamido)-1,3,4-thiadiazol-2-yl)butyl)pyridin-2-yl)acetamide] |  | 
20 | < 25% | 25 to 50% | CC(C)(C)OC(=O)N1CCC(c2ccc(CC(=O)Nc3nnc(CCCCc4ccc(NC(=O)Cc5cccc(OC(F)(F)F)c5)nc4)s3)cc2)CC1 [Example-33, Tert-butyl 4-(4-(2-oxo-2-(5-(4-(6-(2-(3-(trifluoromethoxy)phenyl)acetamido)pyridin-3-yl)butyl)-1,3,4-thiadiazol-2-ylamino)ethyl)phenyl)piperidine-1-carboxylate] |  | 
